{"source": "patent US20070298069A1", "about": "“Medical devices for release of low solubility therapeutic agents” (Boston Scientific Scimed, Inc., priority 2006, published 2007)", "origin": "cited, not measured here", "system": "most gram positive and gram negative aerobic and anaerobic bacteria, some yeast and fungi", "settings": "in most organisms tested"}
{"smiles": "Oc1cc(Cl)ccc1Oc1ccc(Cl)cc1Cl", "note": "[triclosan]", "values": [{"measurement": "MIC", "result": "< 0.3", "unit": "ppm"}]}
